Measured values reported in patent US7758903B2, “Cytokine modulators and related methods of use” (Access Business Group International LLC, priority 2003, dated 2010).
≈ marks a conversion by molar mass, not a printed value. Like-named read-outs stand apart in the source and are kept apart here. Blank lines part the entries; values can stand above or below the compound they belong to.

How the values were obtained:
[1] = system: IL-1 secretion, THP-1 cells; test: LPS-stimulated IL-1 secretion by THP-1 cells, IL-1 ELISA of supernatant; format: cell-based, human; conditions: IL-1 in supernatant, THP-1 cells pre-treated 4 hours, LPS 100 nanograms/ml 16 hours; for EC50: Homo sapiens, read-out: EC 50 in ug/ml (50% Effective Dose in vitro)
Experimental: For this evaluation, white blood cells were dosed with varying concentrations of the ingredients. An inflammatory stimulus, lipopolysaccharide (LPS), was then added to the ingredient-plus-cell culture, as well as untreated control samples of white blood cells. The production of the IL-1 cytokine of both the ingredient-treated cells and the untreated cells was compared to extrapolate the concentration of the ingredient that causes a 50% change in the concentration of IL-1 produced by the cells.
To perform the evaluation of inhibiting interleukin synthesis of this example, human white blood cells, specifically THP-1 cells obtained from ATCC of Manassas, Va., were grown under conditions recommended by ATCC in a humidified 37° C. incubator, which was supplied with 5% carbon dioxide. To test the IL-1 inhibitory potential of various compounds, multiple groups of THP-1 cells were plated in 96 well plates. […] With these cell samples plated, they were then dosed.
In dosing, each of the ingredients was administered to the plated THP-1 cells in varying doses, specifically, 100 ug/ml, 10 ug/ml, 1 ug/ml and 0 ug/ml. […] The THP-1 cells, now dosed with the desired ingredients, were returned to the incubator and incubated for 4 hours under the same conditions.
Thereafter, a known inflammatory stimulator, lipopolysaccharide (LPS) was added to each well plate to a final concentration of 100 nanograms/ml. The LPS treated cultures were returned to the incubator for an additional 16 hours. […]
Thereafter, the liquids from each of the wells were removed and the coated plate was washed 3 times in a wash buffer. […] The reaction of the substrate solution (TMB) and the horseradish peroxidase conjugated to the anti-IL-1 antibody produces a colored product with specific spectral absorbance at wavelength of 450 nm.
The calibration standard samples were subjected to the same protocol as the supernatant samples to determine the IL-1 present in those calibration samples. […] The optical density of the standard calibration samples were then plotted to determine a standardized IL-1 absorbance calibration curve.

[2] = system: IL-1/IL-6 Stimulated CRP Secretion, hepatocytes; test: IL-1/IL-6 stimulated CRP secretion by primary hepatocytes, CRP ELISA of supernatant; format: cell-based; conditions: Homo sapiens, Hepatocyte
Experimental: Hepatocytes' response to IL-1 expression levels was evaluated by measuring CRP in the culture supernatant after exposure of the hepatocytes to IL-1 and IL-6 with or without pre-treatment with varying doses of the other ingredients.
The IL-1 response effects were evaluated in hepatocytes by measuring the secretion of CRP when the hepatocytes were exposed to IL-1α and IL-6 with or without pre-treatment with varying doses of the other ingredients. […] Thus, by measuring CRP secreted by the hepatocytes, the degree of cells' response to IL-1 and/or IL-6 is able to be determined.
To perform the evaluation of this example, human primarily isolated hepatocyte cells, obtained from In vitro Technology of Baltimore, Md., were restored under the conditions recommended by In vitro Technology in a humidified 37° C. incubator, which was supplied with 5% carbon dioxide. To test the CRP response potential of various compounds, multiple groups of hepatocytes were plated in 96 well plates. Specifically, 1×10^4 cells were plated in hepatocyte media supplement with 10% fetal bovine serum which were then exposed with varying doses, specifically, 100 ug/ml, 10 ug/ml, 1 ug/ml and 0 ug/ml of test ingredients. […]

[3] = system: IL-1 secretion, THP-1 cells; test: Synergy or interference of other ingredients with optional primary ingredients in inhibiting LPS-stimulated IL-1 secretion; format: cell-based, human; parameters: key: a “+” indicates interference or synergy, respectively as shown; a “−” indicates no interference or no synergy
Experimental: Specifically, the release of IL-1 from the THP-1 cells after exposure to lipopolysaccharide (LPS) with or without pre-treatment in varying doses of the other ingredients, or a combination of those other ingredients with optional primary ingredients, was measured to evaluate the effects of the other ingredients on monocyte IL-1α secretion.
The other ingredients tested were: blackberry extract, blueberry extract, cranberry extract, rosemary extract, clove extract and resveratrol.
In Table IV, a “−” indicates no interference or no synergy, and a “+” indicates interference or synergy, respectively as shown.

Structure (SMILES): O=C(O[C@@H]1Cc2c(O)cc(O)cc2O[C@@H]1c1cc(O)c(O)c(O)c1)c1cc(O)c(O)c(O)c1 [Epigallocatechin gallate]
EC 50 in ug/ml (50% Effective Dose in vitro) [1]: <1 µg/mL

EC50 [1]: 10 µg/mL (≈ 51.5 µM)
Structure (SMILES): COc1cc(/C=C/C(=O)O)ccc1O [Ferulic acid]

EC50 [1]: < 1 µg/mL
Structure (SMILES): CC(C)Oc1ccc2c(=O)c(-c3ccccc3)coc2c1 [Ipriflavone, reference compound]

Structure (SMILES): Oc1ccc(C=Cc2cc(O)cc(O)c2)cc1 [Resveratrol]
EC50 ([2]; IL-1/IL-6 stimulated CRP secretion, hepatocytes, Example 2, read-out: CRP EC 50 in ug/ml (50% Effective Dose in vitro)): 1 to 10 µg/mL (≈ 4.38 to 43.8 µM) | EC50 ([2]; hepatocytes activated via IL-1 and IL-6 (1 ng/ml each), read-out: EC50 of CRP secretion inhibition): 1 to 10 µg/mL (≈ 4.38 to 43.8 µM) | Interference +/− ([3]; with Artichoke): − | Synergy +/− ([3]; with Artichoke): − | Interference +/− ([3]; with Nettle Root): − | Synergy +/− ([3]; with Nettle Root): − | Interference +/− ([3]; with Olive Extract): − | Synergy +/− ([3]; with Olive Extract): − | Interference +/− ([3]; with Rosehips): − | Synergy +/− ([3]; with Rosehips): −
